# In patent publication US9725449B2, “Tricyclic compounds as anticancer agents” (BRISTOL-MYERS SQUIBB COMPANY, priority 2015, dated 2017):
# Biological target: BRD4 (Homo sapiens, UniProt O60885)
# Assay: Time resolved fluorescence resonance energy transfer (TR-FRET) binding assay, bromodomain BRD4
# Conditions: FRET BRD4 IC50 (nM), one of the FRET assays described
row,SMILES,IC50
1,"[2H]C([2H])([2H])c1nnn(C)c1-c1cnc2c3ccc(N4C5CCC4CC(O)C5)nc3n([C@H](c3ccccc3)C3CCOCC3)c2c1 (stereo partly drawn) [Example 183, 8-{5-[4-(^2H3)Methyl-1-methyl-1H-1,2,3-triazol-5-yl]-8-[(S)-oxan-4-yl(phenyl)methyl]-3,8,10-triazatricyclo[7.4.0.0^2,^7]trideca-1(9),2(7),3,5,10,12-hexaen-11-yl}-8-azabicyclo[3.2.1]octan-3-ol]",< 10 nM

# Same assay, conditions: one of the FRET assays described; read-out: FRET BRD4 IC50
row,SMILES,IC50
1,"[2H]C([2H])([2H])C(=O)c1cc2c(cn1)c1ncc(-c3c(C)noc3C)cc1n2[C@H](c1ccc(F)cc1)C1CCOCC1 [Example 223, 1-[5-(Dimethyl-1,2-oxazol-4-yl)-8-[(S)-(4-fluorophenyl)(oxan-4-yl)methyl]-3,8,12-triazatricyclo[7.4.0.0^2,^7]trideca-1(13),2(7),3,5,9,11-hexaen-11-yl](^2H3)ethan-1-one]",< 10 nM
2,"Cc1nnn(C)c1-c1cnc2c3c(S(C)(=O)=O)ncc(Cl)c3n([C@H](c3ccccc3)C3CCOCC3)c2c1 [Example 42, 10-Chloro-5-(dimethyl-1H-1,2,3-triazol-5-yl)-13-methanesulfonyl-8-[(S)-oxan-4-yl(phenyl)methyl]-3,8,12-triazatricyclo[7.4.0.0^2,^7]trideca-1(13),2(7),3,5,9,11-hexaene]",< 10 nM
3,"[2H]C([2H])([2H])c1nnn(C)c1-c1cnc2c3c(OC)ncc(S(C)(=O)=O)c3n(C(c3cccc(F)c3)C3CCOCC3)c2c1 (single isomer, unassigned) [Example 86, 8-[(3-Fluorophenyl)(oxan-4-yl)methyl]-10-methanesulfonyl-13-methoxy-5-[4-(^2H3)methyl-1-methyl-1H-1,2,3-triazol-5-yl]-3,8,12-triazatricyclo[7.4.0.0^2,^7]trideca-1(13),2(7),3,5,9,11-hexaene]",< 10 nM
4,"Cc1nnn(C)c1-c1cnc2c3ccc(S(=O)(=O)N4CCCC4)nc3n([C@H](c3ccccc3)C3CCOCC3)c2c1 [Example 196, 5-(Dimethyl-1H-1,2,3-triazol-5-yl)-8-[(S)-oxan-4-yl(phenyl)methyl]-11-(pyrrolidine-1-sulfonyl)-3,8,10-triazatricyclo[7.4.0.0^2,^7]trideca-1(9),2(7),3,5,10,12-hexaene]",< 10 nM
5,"Cc1nnn(C)c1-c1cnc2c3ccc(-c4c(C)nnn4C)nc3n([C@@H](c3ccccc3)C3CCOCC3)c2c1 [Example 164, 5,11-Bis(dimethyl-1H-1,2,3-triazol-5-yl)-8-[(R)-oxan-4-yl(phenyl)methyl]-3,8,10-triazatricyclo[7.4.0.0^2,^7]trideca-1(9),2(7),3,5,10,12-hexaene]",< 10 nM
6,Cc1nnn(C)c1-c1cnc2c3cnc(C(C)(C)O)cc3n([C@H](c3ncccc3F)C3CCOCC3)c2c1 [Example 339],< 10 nM
7,"[2H]C(C)(O)c1ccc2c3ncc(-c4c(C)nnn4C)cc3n([C@H](c3ccccc3)C3CCOCC3)c2n1 (stereo partly drawn) [Example 172, 1-[5-(Dimethyl-1H-1,2,3-triazol-5-yl)-8-[(S)-oxan-4-yl(phenyl)methyl]-3,8,10-triazatricyclo[7.4.0.0^2,^7]trideca-1(9),2(7),3,5,10,12-hexaen-11-yl](1-^2H)ethan-1-ol]",< 10 nM
8,"[2H]C([2H])([2H])c1nnn(C)c1-c1cnc2c3c(N[C@@H](C)C4CC4)ncc(S(C)(=O)=O)c3n([C@H](c3ccccc3)C3CCOCC3)c2c1 [Example 113, N-[(1S)-1-Cyclopropylethyl]-10-methanesulfonyl-5-[4-(^2H3)methyl-1-methyl-1H-1,2,3-triazol-5-yl]-8-[(S)-oxan-4-yl(phenyl)methyl]-3,8,12-triazatricyclo[7.4.0.0^2,^7]trideca-1(13),2(7),3,5,9,11-hexaen-13-amine]",< 1 nM
9,"COc1ccc2c3ncc(-c4c(C)nnn4C)cc3n(C(c3ccccc3F)C3CCOCC3)c2n1 (racemic) [Example 28, 5-(Dimethyl-1H-1,2,3-triazol-5-yl)-8-[(2-fluorophenyl)(oxan-4-yl)methyl]-11-methoxy-3,8,10-triazatricyclo[7.4.0.0^2,^7]trideca-1(13),2(7),3,5,9,11-hexaene]",< 10 nM
10,"[2H]C([2H])([2H])c1nnn(C)c1-c1cnc2c3c(OCC)ncc(S(C)(=O)=O)c3n([C@H](c3ccccc3F)C3CCOCC3)c2c1 [Example 62, 13-Ethoxy-8-[(S)-(2-fluorophenyl)(oxan-4-yl)methyl]-10-methanesulfonyl-5-[4-(^2H3)methyl-1-methyl-1H-1,2,3-triazol-5-yl]-3,8,12-triazatricyclo[7.4.0.0^2,^7]trideca-1(13),2(7),3,5,9,11-hexaene]",< 1 nM
11,"[2H]C([2H])([2H])c1nnn(C)c1-c1cnc2c3cnc(OCC4CC4)cc3n([C@H](c3ccccc3)C3CCOCC3)c2c1 [Example 288, 11-(Cyclopropylmethoxy)-5-[4-(^2H3)methyl-1-methyl-1H-1,2,3-triazol-5-yl]-8-[(S)-oxan-4-yl(phenyl)methyl]-3,8,12-triazatricyclo[7.4.0.0^2,^7]trideca-1(9),2(7),3,5,10,12-hexaene]",< 1 nM
12,"[2H]C([2H])([2H])c1nnn(C)c1-c1cnc2c3c(Cl)cnc(Cl)c3n([C@H](c3ccccc3)C3CCOCC3)c2c1 [Example 296, 10,13-Dichloro-5-[4-(^2H3)methyl-1-methyl-1H-1,2,3-triazol-5-yl]-8-[(S)-oxan-4-yl(phenyl)methyl]-3,8,11-triazatricyclo[7.4.0.0^2,^7]trideca-1(9),2(7),3,5,10,12-hexaene]",< 1 nM
13,"CCOc1ncc(S(C)(=O)=O)c2c1c1ncc(-c3c(C)nnn3C)cc1n2[C@H](c1ccccc1)C1CCOCC1 [Example 53, 5-(Dimethyl-1H-1,2,3-triazol-5-yl)-13-ethoxy-10-methanesulfonyl-8-[(S)-oxan-4-yl(phenyl)methyl]-3,8,12-triazatricyclo[7.4.0.0^2,^7]trideca-1(13),2(7),3,5,9,11-hexaene]",< 1 nM
14,"Cc1nnn(C)c1-c1cnc2c3ccc(Cl)nc3n([C@@H](c3ccccc3)C3CCOCC3)c2c1 [Example 15, 11-Chloro-5-(dimethyl-1H-1,2,3-triazol-5-yl)-8-[(R)-oxan-4-yl(phenyl)methyl]-3,8,10-triazatricyclo[7.4.0.0^2,^7]trideca-1(9),2(7),3,5,10,12-hexaene]",< 1500 nM
15,Cc1cc([C@H](C2CCOCC2)n2c3cc(-c4c(C)nnn4C)ncc3c3ncc(C(C)(C)O)cc32)no1 [Example 365],< 10 nM
16,"[2H]C([2H])([2H])c1nnn(C)c1-c1cnc2c3cc(C(C)(C)O)cnc3n([C@H](c3ccccc3)C3CCOCC3)c2c1 [Example 349, 2-{5-[4-(^2H3)Methyl-1-methyl-1H-1,2,3-triazol-5-yl]-8-[(S)-oxan-4-yl(phenyl)methyl]-3,8,10-triazatricyclo[7.4.0.0^2,^7]trideca-1(13),2(7),3,5,9,11-hexaen-12-yl}propan-2-ol]",< 1 nM
17,"Cc1nnn(C)c1-c1cnc2c3ccc(NCCP(=O)(O)O)nc3n([C@H](c3ccccc3)C3CCOCC3)c2c1 [Example 219, (2-{[5-(Dimethyl-1H-1,2,3-triazol-5-yl)-8-[(S)-oxan-4-yl(phenyl)methyl]-3,8,10-triazatricyclo[7.4.0.0^2,^7]trideca-1(9),2(7),3,5,10,12-hexaen-11-yl]amino}ethyl)phosphonic acid]",< 1 nM
18,"[2H]C([2H])([2H])c1nnn(C)c1-c1cnc2c3c(OCC)ncc(S(C)(=O)=O)c3n([C@H](c3ccc(F)cc3)C3CCOCC3)c2c1 [Example 77, 13-Ethoxy-8-[(S)-(4-fluorophenyl)(oxan-4-yl)methyl]-10-methanesulfonyl-5-[4-(^2H3)methyl-1-methyl-1H-1,2,3-triazol-5-yl]-3,8,12-triazatricyclo[7.4.0.0^2,^7]trideca-1(13),2(7),3,5,9,11-hexaene]",< 1 nM
19,"[2H]C([2H])([2H])c1nnn(C)c1-c1cnc2c3cnc(Cl)cc3n(C(c3ncccc3F)C3CCOCC3)c2c1 (single isomer, unassigned) [Example 321]",< 10 nM
20,"[2H]C([2H])([2H])c1nnn(C)c1-c1cnc2c3cnc(Cl)cc3n(C(c3ncccc3F)C3CCOCC3)c2c1 (single isomer, unassigned) [Example 320]",< 1500 nM
21,"[2H]C([2H])([2H])c1nnn(C)c1-c1cnc2c3c(OC)ncc(S(C)(=O)=O)c3n(C(c3ncccc3F)C3CCOCC3)c2c1 (centres unmarked) [Example 64, 8-[(3-Fluoropyridin-2-yl)(oxan-4-yl)methyl]-10-methanesulfonyl-13-methoxy-5-[4-(^2H3)methyl-1-methyl-1H-1,2,3-triazol-5-yl]-3,8,12-triazatricyclo[7.4.0.0^2,^7]trideca-1(13),2(7),3,5,9,11-hexaene]",< 1 nM
22,"[2H]C([2H])([2H])c1onc(C)c1-c1cnc2c3c(OC)ncc(S(=O)(=O)C([2H])([2H])[2H])c3n(C(c3ncccc3F)C3CCOCC3)c2c1 (centres unmarked) [Example 67, 8-[(3-Fluoropyridin-2-yl)(oxan-4-yl)methyl]-10-(^2H3)methanesulfonyl-13-methoxy-5-[5-(^2H3)methyl-3-methyl-1,2-oxazol-4-yl]-3,8,12-triazatricyclo[7.4.0.0^2,^7]trideca-1(13),2(7),3,5,9,11-hexaene]",< 1500 nM
23,"CCN(CCN(C)C)c1ccc2c3ncc(-c4c(OC)nnn4C)cc3n([C@H](c3ccccc3F)C3CCOCC3)c2n1 [Example 257, N-[2-(Dimethylamino)ethyl]-N-ethyl-8-[(S)-(2-fluorophenyl)(oxan-4-yl)methyl]-5-(4-methoxy-1-methyl-1H-1,2,3-triazol-5-yl)-3,8,10-triazatricyclo[7.4.0.0^2,^7]trideca-1(13),2(7),3,5,9,11-hexaen-11-amine]",< 1 nM
24,"Cc1nnn(C)c1-c1cnc2c3ccc(S(C)(=O)=O)nc3n([C@H](c3ccccc3)C3CCOCC3)c2c1 [Example 145, 5-(Dimethyl-1H-1,2,3-triazol-5-yl)-11-methanesulfonyl-8-[(S)-oxan-4-yl(phenyl)methyl]-3,8,10-triazatricyclo[7.4.0.0^2,^7]trideca-1(13),2(7),3,5,9,11-hexaene]",< 10 nM
25,"Cc1nnn(C)c1-c1cnc2c3ccc(-c4c(C)nnn4C)nc3n([C@H](c3ccccc3)C3CCOCC3)c2c1 [Example 163, 5,11-Bis(dimethyl-1H-1,2,3-triazol-5-yl)-8-[(S)-oxan-4-yl(phenyl)methyl]-3,8,10-triazatricyclo[7.4.0.0^2,^7]trideca-1(9),2(7),3,5,10,12-hexaene]",< 1 nM
